The source of these data is ChEMBL document CHEMBL1128307, “2-Aralkynyl and 2-heteroalkynyl derivatives of adenosine-5'-N-ethyluronamide as selective A2a adenosine receptor agonists” (J Med Chem, 1995).

The EC50 is the midpoint of the concentration-response curve. Higher therefore signals a need for much substance. Broadly, the Ki is the equilibrium dissociation constant of an inhibitor or competing ligand from its target. Lower therefore signals tighter binding.

In data set [1] the target is T1, Adenosine receptor A2a (Rattus norvegicus, UniProt P30543).
T1 sequence (P30543 whole entry): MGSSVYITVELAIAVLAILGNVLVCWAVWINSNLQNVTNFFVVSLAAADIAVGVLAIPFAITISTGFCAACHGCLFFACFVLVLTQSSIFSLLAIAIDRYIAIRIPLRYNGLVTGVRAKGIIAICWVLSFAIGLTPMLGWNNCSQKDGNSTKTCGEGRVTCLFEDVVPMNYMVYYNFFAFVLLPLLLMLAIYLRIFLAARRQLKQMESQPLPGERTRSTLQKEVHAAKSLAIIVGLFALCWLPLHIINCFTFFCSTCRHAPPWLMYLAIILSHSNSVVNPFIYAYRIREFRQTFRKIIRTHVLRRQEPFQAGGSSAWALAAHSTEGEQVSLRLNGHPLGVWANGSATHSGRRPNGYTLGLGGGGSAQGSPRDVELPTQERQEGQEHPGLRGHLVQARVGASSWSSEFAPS
Description: Functional activity against adenosine A2a receptor from rat aorta.
In data set [2] the target is T2, Adenosine receptor A1 (Rattus norvegicus, UniProt P25099).
T2 sequence (P25099 whole entry): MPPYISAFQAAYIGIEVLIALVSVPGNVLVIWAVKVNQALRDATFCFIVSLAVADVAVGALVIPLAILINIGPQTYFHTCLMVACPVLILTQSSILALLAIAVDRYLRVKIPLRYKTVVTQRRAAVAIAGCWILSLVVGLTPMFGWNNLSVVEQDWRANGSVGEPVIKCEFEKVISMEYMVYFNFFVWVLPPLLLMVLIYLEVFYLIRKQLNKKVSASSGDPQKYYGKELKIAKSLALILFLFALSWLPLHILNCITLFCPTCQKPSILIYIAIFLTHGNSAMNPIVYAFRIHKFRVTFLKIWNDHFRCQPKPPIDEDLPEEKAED
Description: Binding affinity against adenosine A1 receptor from rat brain using [3H]CHA as a radioligand.

For data set [3], the target named is T2, Adenosine receptor A1. Kind of data set: Functional activity against adenosine A1 receptor from rat atria.
Data set [4] is described as follows: Hydrophobicity index (k'') (RP-HPLC pH 7.5). It is filed as ADME.
For data set [5], the target named is T1, Adenosine receptor A2a. The source holds these as a separate data set.
Data set [6] addresses T1, Adenosine receptor A2a. The experiment in a line: Functional activity against A2a adenosine receptor from rat aorta.

Bounds are passed on as bounds.

As to `CCNC(=O)[C@H]1OC(n2cnc3c(N)nc(C#Cc4ccc(O)cc4)nc32)[C@H](O)[C@@H]1O` (stereo not given in full), the EC50 at Adenosine receptor A2a [1] was 660 nM; on Adenosine receptor A1 [3] it was above 10000 nM. The Ki at Adenosine receptor A1 [2] is 497 nM; at Adenosine receptor A2a [5], 20.6 nM. Besides, the “k'” value in data set [4] came out at 0.66.
Taken in the same sequence, the figures for `CCNC(=O)[C@H]1OC(n2cnc3c(N)nc(C#Cc4ccc(C(C)=O)cc4)nc32)[C@H](O)[C@@H]1O` (stereo not given in full) were 1670 nM, above 10000 nM, above 10000 nM, 187 nM and 1.18.
Turning to `CCNC(=O)[C@H]1OC(n2cnc3c(N)nc(C#Cc4cccs4)nc32)[C@H](O)[C@@H]1O` (stereo not given in full), the results for the EC50 at Adenosine receptor A2a [6] and at Adenosine receptor A1 [3] were 227 nM and above 10000 nM, respectively. Further, the results for the Ki at Adenosine receptor A1 [2] and on Adenosine receptor A2a [5] were 597 nM and 19.5 nM, respectively. Moreover, the “k'” value in data set [4] amounted to 1.63.
Take `CCNC(=O)[C@H]1OC(n2cnc3c(N)nc(C#Cc4ccc(OC)cc4)nc32)[C@H](O)[C@@H]1O` (stereo not given in full): the figures for the EC50 at Adenosine receptor A2a [1] and on Adenosine receptor A1 [3] were 3480 nM and above 10000 nM, respectively. The Ki on Adenosine receptor A1 [2] came out at 414 nM; at Adenosine receptor A2a [5], 52.4 nM. For the same compound, the “k'” value in data set [4] is 2.15.
Taken in the same sequence, the figures for `CCNC(=O)[C@H]1OC(n2cnc3c(N)nc(C#Cc4cccc5ccccc45)nc32)[C@H](O)[C@@H]1O` (stereo not given in full) were 468 nM, above 10000 nM, 4460 nM, 488 nM and 5.49.
Taken in the same sequence, the figures for `CCNC(=O)[C@H]1OC(n2cnc3c(N)nc(C#Cc4nccs4)nc32)[C@H](O)[C@@H]1O` (stereo not given in full) were 28.7 nM, 7160 nM, 85.4 nM, 41.3 nM and 0.55.
The corresponding values for `CCNC(=O)[C@H]1OC(n2cnc3c(N)nc(C#Cc4ccccc4C=O)nc32)[C@H](O)[C@@H]1O` (stereo not given in full) are 1300 nM, above 10000 nM, 6860 nM, 1160 nM and 1.14.
Turning to `CCNC(=O)[C@H]1OC(n2cnc3c(N)nc(C#CCn4ccnc4)nc32)[C@H](O)[C@@H]1O` (stereo not given in full), the EC50 on Adenosine receptor A2a [1] was 753 nM; on Adenosine receptor A1 [3], 3140 nM. For the same compound, the results for the Ki on Adenosine receptor A1 [2] and at Adenosine receptor A2a [5] were 178 nM and 16.5 nM, respectively. Moreover, the “k'” value in data set [4] worked out at 0.22.
